Reference: US8916551B2, “Heterocyclic compound and use thereof” (Takeda Pharmaceutical Company Limited, priority 2010, dated 2014)

Tests used:
[1] = target: T1, AMPA receptor (human GluR1 flip/stargazin expressed in CHO-K1 cells) (Homo sapiens, UniProt P42261); experiment: AMPA receptor function enhancing activity using calcium influx as index; format: cell-based; settings: 100% = 3 mM glutamic acid + 300 μM cyclothiazide, 0% = 3 mM glutamic acid only
T1 construct: expressed in transfected cells; host or cells: CHO-K1
T1 sequence (P42261 19-906 isoform P42261-2 limits assumed): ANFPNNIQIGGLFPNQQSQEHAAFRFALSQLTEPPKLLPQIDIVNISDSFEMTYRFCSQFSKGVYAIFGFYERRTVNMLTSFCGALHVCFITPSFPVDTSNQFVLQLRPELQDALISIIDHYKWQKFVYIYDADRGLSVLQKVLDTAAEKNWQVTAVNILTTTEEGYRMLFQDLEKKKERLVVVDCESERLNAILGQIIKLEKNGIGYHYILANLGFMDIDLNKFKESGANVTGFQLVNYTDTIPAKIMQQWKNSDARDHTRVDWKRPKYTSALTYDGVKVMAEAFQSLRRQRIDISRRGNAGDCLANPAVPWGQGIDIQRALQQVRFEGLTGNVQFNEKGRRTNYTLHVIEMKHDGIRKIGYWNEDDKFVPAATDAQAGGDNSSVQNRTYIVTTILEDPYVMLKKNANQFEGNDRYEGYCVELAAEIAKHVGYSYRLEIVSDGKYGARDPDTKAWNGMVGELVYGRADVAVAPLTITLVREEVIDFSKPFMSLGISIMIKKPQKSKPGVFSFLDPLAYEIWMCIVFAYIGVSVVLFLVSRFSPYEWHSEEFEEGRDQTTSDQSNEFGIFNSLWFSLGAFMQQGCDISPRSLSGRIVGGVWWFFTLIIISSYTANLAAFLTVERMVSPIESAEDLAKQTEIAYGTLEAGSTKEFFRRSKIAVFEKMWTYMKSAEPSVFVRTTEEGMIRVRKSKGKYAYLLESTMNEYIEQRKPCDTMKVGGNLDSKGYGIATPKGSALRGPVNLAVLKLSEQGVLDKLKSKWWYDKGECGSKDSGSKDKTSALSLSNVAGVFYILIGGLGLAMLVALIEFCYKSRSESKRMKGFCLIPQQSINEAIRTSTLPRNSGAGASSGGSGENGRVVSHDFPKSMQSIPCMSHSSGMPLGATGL
T1 sequence (Q9Y698 whole entry partner): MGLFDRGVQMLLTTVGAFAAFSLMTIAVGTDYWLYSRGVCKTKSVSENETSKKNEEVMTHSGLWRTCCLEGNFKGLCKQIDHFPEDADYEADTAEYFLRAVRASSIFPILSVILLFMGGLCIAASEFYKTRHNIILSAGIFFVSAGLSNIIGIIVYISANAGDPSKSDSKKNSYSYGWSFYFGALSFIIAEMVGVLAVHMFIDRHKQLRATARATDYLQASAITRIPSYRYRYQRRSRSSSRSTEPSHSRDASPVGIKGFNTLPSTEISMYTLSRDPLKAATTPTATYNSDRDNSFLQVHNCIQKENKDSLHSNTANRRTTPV
How it was run: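 CHO-K1 clone stably co-expressing human GluR1 flip and stargazin, loaded with Calcium 4 dye plus probenecid. Compound at 30 μM was added with glutamate (3 mM final) and fluorescence change followed over 3 min. Activity is expressed as % of the 3 mM glutamate plus 300 μM cyclothiazide response, with glutamate alone as 0%.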

[2] = test compound 30 μM with glutamic acid final 3 mM, change in fluorescence in 3 min
[3] = test compound 30 μM with 3 mM glutamic acid, change in fluorescence level in 3 min

Row | activity (%) [1, 2] [%] | melting point [°C] | activity (%) [1, 3] [%] | SMILES
1 | 68 | 258 to 259 |  | CC(C)(C)COc1ccc(C2=CC=CN3CCS(=O)(=O)N=C23)cc1 [Example 67, 9-[4-(2,2-dimethylpropoxy)phenyl]-3,4-dihydropyrido[2,1-c][1,2,4]thiadiazine 2,2-dioxide]
2 | 81 | 222 to 223 |  | O=S1(=O)CCN2C=CC=C(c3ccc(OCC4CCCO4)cc3)C2=N1 (stereo not drawn) [Example 75, 9-[4-(tetrahydrofuran-2-ylmethoxy)phenyl]-3,4-dihydropyrido[2,1-c][1,2,4]thiadiazine 2,2-dioxide]
3 | 79 | 252 to 253 |  | O=S1(=O)CCN2C=CC=C(c3ccc(Oc4ccccc4)cc3)C2=N1 [Example 31, 9-(4-phenoxyphenyl)-3,4-dihydropyrido[2,1-c][1,2,4]thiadiazine 2,2-dioxide]
4 |  | 219 to 220 | 91 | N#Cc1ccc(Oc2ccc(C3CCCN4CCS(=O)(=O)N=C34)cc2)cc1Cl (stereo not drawn) [Example 183, 2-chloro-4-[4-(2,2-dioxido-3,4,6,7,8,9-hexahydropyrido[2,1-c][1,2,4]thiadiazin-9-yl)phenoxy]benzonitrile]
5 |  | 283 to 284 | 67 | O=S1(=O)CCN2C=CC(Cl)=C(c3ccc(Oc4ccccc4)cc3)C2=N1 [Example 205, 8-chloro-9-(4-phenoxyphenyl)-3,4-dihydropyrido[2,1-c][1,2,4]thiadiazine 2,2-dioxide]
6 | 78 | 249 to 251 |  | O=S1(=O)CCN2C=CC=C(c3ccc(OC(F)(F)F)cc3)C2=N1 [Example 34, 9-[4-(trifluoromethoxy)phenyl]-3,4-dihydropyrido[2,1-c][1,2,4]thiadiazine 2,2-dioxide]
7 |  | 215 to 216 | 73 | O=S1(=O)CCN2CCCC(c3ccc(Oc4ccc(Cl)cc4)cc3)C2=N1 (stereo not drawn) [Example 148, 9-[4-(4-chlorophenoxy)phenyl]-3,4,6,7,8,9-hexahydropyrido[2,1-c][1,2,4]thiadiazine 2,2-dioxide]
8 | 80 | 238 to 239 |  | O=S1(=O)CCN2CCCC(c3ccc(-c4ccccc4)cc3)C2=N1 (stereo not drawn) [Example 28, 9-biphenyl-4-yl-3,4,6,7,8,9-hexahydropyrido[2,1-c][1,2,4]thiadiazine 2,2-dioxide]
9 | 72 | 235 to 237 |  | COc1ccc2ccc(OC3=CC=CN4CCS(=O)(=O)N=C34)cc2c1 [Example 59, 9-[(7-methoxynaphthalen-2-yl)oxy]-3,4-dihydropyrido[2,1-c][1,2,4]thiadiazine 2,2-dioxide]
10 | 75 | 284 to 287 |  | O=S1(=O)CCN2C=C(Cl)C=C(c3ccc(OC4CCCCC4)cc3)C2=N1 [Example 73, 7-chloro-9-[4-(cyclohexyloxy)phenyl]-3,4-dihydropyrido[2,1-c][1,2,4]thiadiazine 2,2-dioxide]
11 | 71 | 268 to 269 |  | O=S1(=O)CCN2C=CC=C(c3ccc(OCC4CCOCC4)cc3)C2=N1 [Example 69, 9-[4-(tetrahydro-2H-pyran-4-ylmethoxy)phenyl]-3,4-dihydropyrido[2,1-c][1,2,4]thiadiazine 2,2-dioxide]
12 |  | 198 to 203 |  | CC(C)c1ccc(C2CCCN3CCS(=O)(=O)N=C23)cc1 (stereo not drawn) [Example 42, 9-[4-(1-methylethyl)phenyl]-3,4,6,7,8,9-hexahydropyrido[2,1-c][1,2,4]thiadiazine 2,2-dioxide]
13 | 87 | 258 to 262 |  | CC(C)c1ccc(C#CC2=CC=CN3CCS(=O)(=O)N=C23)cc1 [Example 26, 9-{[4-(1-methylethyl)phenyl]ethynyl}-3,4-dihydropyrido[2,1-c][1,2,4]thiadiazine 2,2-dioxide]
14 |  | 169 to 170 |  | CCCOc1ccc(C2CCCN3CCS(=O)(=O)N=C23)cc1 (stereo not drawn) [Example 190, 9-(4-propoxyphenyl)-3,4,6,7,8,9-hexahydropyrido[2,1-c][1,2,4]thiadiazine 2,2-dioxide]
15 | 75 | 212 to 214 |  | CC(C)c1ccc(OCC2=CC=CN3CCS(=O)(=O)N=C23)cc1 [Example 61, 9-{[4-(1-methylethyl)phenoxy]methyl}-3,4-dihydropyrido[2,1-c][1,2,4]thiadiazine 2,2-dioxide]
16 |  | 275 to 277 |  | O=S1(=O)CCN2C=CC=C(c3ccc(OC4CCCCC4)cc3)C2=N1 [Example 165, 9-[4-(cyclohexyloxy)phenyl]-3,4-dihydropyrido[2,1-c][1,2,4]thiadiazine 2,2-dioxide]
17 |  | 177 to 179 |  | O=S1(=O)CCN2CCCC(c3ccc(Oc4ccc(C(F)(F)F)cc4)cc3)C2=N1 (stereo not drawn) [Example 233, 9-{4-[4-(trifluoromethyl)phenoxy]phenyl}-3,4,6,7,8,9-hexahydropyrido[2,1-c][1,2,4]thiadiazine 2,2-dioxide]
18 |  | 207 to 208 |  | O=S1(=O)CCN2CCCC(c3ccc(OC(F)(F)F)cc3)C2=N1 (stereo not drawn) [Example 41, 9-[4-(trifluoromethoxy)phenyl]-3,4,6,7,8,9-hexahydropyrido[2,1-c][1,2,4]thiadiazine 2,2-dioxide]

Row | activity (%) [1, 2] [%] | melting point [°C] | activity (%) [1, 3] [%] | SMILES
19 |  | 253 to 255 |  | O=S1(=O)CCN2C=CC=C(c3ccc(Oc4ccccc4)cc3)C2=N1 [Example 167, 9-(4-phenoxyphenyl)-3,4-dihydropyrido[2,1-c][1,2,4]thiadiazine 2,2-dioxide]
20 |  | 245 to 247 |  | CC(C)Oc1ccc(C2=CC=CN3CCS(=O)(=O)N=C23)cc1 [Example 33, 9-[4-(1-methylethoxy)phenyl]-3,4-dihydropyrido[2,1-c][1,2,4]thiadiazine 2,2-dioxide]
21 |  | 124 to 125 |  | O=S1(=O)CCN2CCN[C@H](c3ccc(Oc4ccccc4)cc3)C2=N1 [Example 213, (9R)-9-(4-phenoxyphenyl)-3,4,6,7,8,9-hexahydropyrazino[2,1-c][1,2,4]thiadiazine 2,2-dioxide]
22 |  | 232 to 236 |  | CC(C)(C)c1ccc(C2CCCN3CCS(=O)(=O)N=C23)cc1 (stereo not drawn) [Example 38, 9-(4-tert-butylphenyl)-3,4,6,7,8,9-hexahydropyrido[2,1-c][1,2,4]thiadiazine 2,2-dioxide]
23 |  | 258 to 259 |  | O=S1(=O)CCN2C=CC=C(c3ccc(OCC4CCCC4)cc3)C2=N1 [Example 74, 9-[4-(cyclopentylmethoxy)phenyl]-3,4-dihydropyrido[2,1-c][1,2,4]thiadiazine 2,2-dioxide]
24 |  | 248 to 250 |  | Cc1ccc(Oc2ccc(C3=CC=CN4CCS(=O)(=O)N=C34)cc2)cc1 [Example 168, 9-[4-(4-methylphenoxy)phenyl]-3,4-dihydropyrido[2,1-c][1,2,4]thiadiazine 2,2-dioxide]
25 |  | 152 to 153 |  | CCc1ccc(Oc2ccc([C@H]3CCCN4CCS(=O)(=O)N=C34)cc2)cc1 [Example 217, (9R)-9-[4-(4-ethylphenoxy)phenyl]-3,4,6,7,8,9-hexahydropyrido[2,1-c][1,2,4]thiadiazine 2,2-dioxide]
26 |  | 251 to 252 |  | O=S1(=O)CCN2C=CC=C(c3ccc(Oc4ccccc4)cc3)C2=N1 [Example 166, 9-(4-phenoxyphenyl)-3,4-dihydropyrido[2,1-c][1,2,4]thiadiazine 2,2-dioxide]
27 |  | 154 to 156 |  | O=S1(=O)CCN2CCC[C@@H](c3ccc(Oc4ccc(F)c(Cl)c4)cc3)C2=N1 [Example 457, (9S)-9-[4-(3-chloro-4-fluorophenoxy)phenyl]-3,4,6,7,8,9-hexahydropyrido[2,1-c][1,2,4]thiadiazine 2,2-dioxide]
28 |  | 238 to 239 |  | O=S1(=O)CCN2C=C(Cl)C=C(c3ccc(Oc4cc(C(F)(F)F)ccn4)cc3)C2=N1 [Example 76, 7-chloro-9-(4-{[4-(trifluoromethyl)pyridin-2-yl]oxy}phenyl)-3,4-dihydropyrido[2,1-c][1,2,4]thiadiazine 2,2-dioxide]
29 |  | 171 to 176 |  | O=S1(=O)CCN2CCC[C@H](c3ccc(Oc4ccccc4)cc3)C2=N1 [Example 62, (9R)-9-(4-phenoxyphenyl)-3,4,6,7,8,9-hexahydropyrido[2,1-c][1,2,4]thiadiazine 2,2-dioxide]
30 |  | 241 to 242 |  | O=S1(=O)CCN2C=CC=C(c3ccc(-c4ccccc4)s3)C2=N1 [Example 50, 9-(5-phenylthiophen-2-yl)-3,4-dihydropyrido[2,1-c][1,2,4]thiadiazine 2,2-dioxide]
31 |  | 171 to 172 |  | CC(F)(F)c1ccc(Oc2ccc(C3CCCN4CCS(=O)(=O)N=C34)cc2)cc1 (stereo not drawn) [Example 170, 9-{4-[4-(1,1-difluoroethyl)phenoxy]phenyl}-3,4,6,7,8,9-hexahydropyrido[2,1-c][1,2,4]thiadiazine 2,2-dioxide]
32 |  | 237 to 239 |  | CCC(C)c1ccc(C2=CC=CN3CCS(=O)(=O)N=C23)cc1 (stereo not drawn) [Example 32, 9-[4-(1-methylpropyl)phenyl]-3,4-dihydropyrido[2,1-c][1,2,4]thiadiazine 2,2-dioxide]
33 |  | 254 to 256 |  | O=S1(=O)CCN2C=CC=C(c3ccc(OC4CCCC4)cc3)C2=N1 [Example 66, 9-[4-(cyclopentyloxy)phenyl]-3,4-dihydropyrido[2,1-c][1,2,4]thiadiazine 2,2-dioxide]
34 |  | 291 to 292 |  | CC(C)(C)c1ccc(C2=CC=CN3CCS(=O)(=O)N=C23)cc1 [Example 35, 9-(4-tert-butylphenyl)-3,4-dihydropyrido[2,1-c][1,2,4]thiadiazine 2,2-dioxide]
35 |  | 124 to 125 |  | O=S1(=O)CCN2CCN[C@@H](c3ccc(Oc4ccccc4)cc3)C2=N1 [Example 212, (9S)-(4-phenoxyphenyl)-3,4,6,7,8,9-hexahydropyrazino[2,1-c][1,2,4]thiadiazine 2,2-dioxide]
